Reference: patent US11028127B2, “Peptides capable of reactivating p53 mutants” (Yeda Research and Development Co. Ltd., priority 2013, dated 2021)
Where no end group is shown, it is not given here.

What was measured:
[1] = tested on: ES2 ovarian carcinoma cells (Mut-p53, position 241); assay: Annexin-V/PI apoptosis assay by flow cytometry; assay type: cell-based; conditions: 12 ug/ml
Method: (§1) FIGS. 17A, 17B, 17C and 17D illustrate representative experiments performed on ES2 ovarian carcinoma cells expressing Mut-p53 mutated at position 241 within the DBD. […] Cells were harvested and an apoptosis assay (FIGS. 17A and 17B) was performed using the Annexin-V staining kit (Roche, REF 11 988 549 001). Non-fixed cells were stained with both anti Annexin FITC conjugated antibody to detect apoptotic cells, and PI (propidium iodide) to stain dead cells, according to the manufacturer's instructions. Stained cells were then analyzed by flow cytometry. A total of 10,000 cells was counted for each sample and divided into four sub populations according to staining intensity; cells negative for both PI and Annexin (−PI, −Annexin) are termed live; cells negative for PI and positive for Annexin (−PI, +Annexin) are going through early stages of apoptosis; cells positive for PI and Annexin (+PI, +Annexin) are dead cells that underwent an apoptotic process; and cells positive for PI and negative for Annexin (+PI, −Annexin) are assumed as dead cells that died by a non-apoptotic process such as necrosis.
FIGS. 17A and 17B illustrate a representative experiments performed on ES2 ovarian carcinoma cells (FIGS. 17A-D) expressing Mut-p53 with a mutation at positions 241 within the DBD. […] Cells were harvested, and 60% of the cells were taken for Annexin-PI apoptosis assay and 40% for extraction of RNA, cDNA synthesis and real time PCR analysis. Apoptosis was assayed using the Annexin-V staining kit (Roche, REF 11 988 549 001). Non-fixed cells were stained with both anti Annexin FITC conjugated antibody to detect apoptotic cells, and PI (propidium-iodide) to stain dead cells permeable to the compound, according to the manufacturer's instructions. Stained cells were then analyzed by flow cytometry. A total of 10,000 cells was counted for each sample and divided into four subpopulations according to staining intensity: cells negative for both PI and Annexin (−PI, −Annexin) are termed live; cells negative for PI and positive for Annexin (−PI, +Annexin) are going through early stages of apoptosis; cells positive for PI and Annexin (+PI, +Annexin) are dead cells that underwent an apoptotic process; and cells positive for PI and negative for Annexin (+PI, −Annexin) are assumed to be dead cells that died a non-apoptotic death such as necrosis. […] Treatment with pCAPs 242 and 250 causes a rapid increase in apoptotic cells followed by cell death and after 5 hours of treatment 12% of cells are Annexin positive and about 7% are dead. After 16 and 24 hours of treatment with pCAP 250 the apoptotic population increases to about 27% and dead cells accumulate to 29% at 16h and 36% after 24h. […] CD95 and Btg-2 expression is elevated up to 6 fold over non-treated cells.

[2] = tested on: ES2 ovarian carcinoma cells (Mut-p53, position 241); assay: qRT-PCR of p53 target genes (p21, PUMA, CD95, Btg-2); assay type: cell-based; conditions: 12 ug/ml, over non-treated cells
Method: as §1
FIGS. 17A and 17B illustrate a representative experiments performed on ES2 ovarian carcinoma cells (FIGS. 17A-D) expressing Mut-p53 with a mutation at positions 241 within the DBD. […] Stained cells were then analyzed by flow cytometry. […]

[3] = tested on: MDA-MB-231 breast cancer cells (Mut-p53, position 280); assay: Crystal violet viability assay; assay type: cell-based; conditions: shCon cells
From the text: (§2) FIGS. 15A and 15B are bar graphs illustrating the effect of the various indicated peptides on the viability of breast cancer cells expressing different Mut-p53 isoforms, as determined by crystal violet assay. FIG. 15A: MDA-MB-231 cells expressing Mut-p53 with a mutation at position 280 of the DBD. FIG. 15B: SKBR3 cells expressing Mut-p53 with mutation at position 175 within the DBD. The bar graphs in FIGS. 15A and 15B show for each tested peptide the optical density reads at 595 nm, reflecting the number of cells in the plate after treatment, normalized to the non-treated (NT) samples.
(§3) Cells were cultured in 96 wells plates with 2500-4000 cells/well in 0.1 ml and incubated overnight at 37° C. in order to adhere to the plate. Serial dilutions of different peptides (0.5 μg/ml) were added in 0.1 ml aliquots and the plates incubated for additional 48 h at 37° C. Then medium was removed and cell lysis was determined by staining the cells with crystal violet (0.5%) in methanol/water (1:4, v/v), 50 μl each well, for 10 min, followed by 3 washes with PBS. Afterwards, 10% acetic acid (50 μl) was added to each well and shaken for 10 min. Then, automatic plate reading was performed at 595 nm.
(§4) Experiments using different cancer cell lines expressing endogenously different p53 mutant isoforms were performed. FIGS. 15A and 15B illustrate two representative experiments performed on MDA-MB-231 (FIG. 15A) and SKBR3 (FIG. 15B) breast cancer cells expressing Mut-p53 with mutations at positions 280 or 175, respectively, within the DNA Binding Domain (DBD). To examine the peptides' specificity for Mut-p53, the control used was such cells with a knockdown of Mut-p53 (shp53).

[4] = tested on: SKBR3 breast cancer cells (Mut-p53, position 175); assay: Crystal violet viability assay; assay type: cell-based; conditions: shCon cells
From the text: as §2, §3, §4

Solubility in DMSO = assay type: physicochemical; conditions: at a concentration of 10 mg/ml
From the text: Addition of a poly arginine tail to peptides dramatically increases the solubility of peptides with a high content of hydrophobic amino acids. […] Lead peptides were further subjected to rigorous examination of effects on cell viability in a Mut-p53 specific manner.

In the case of myr-RRHSTPHPD [pCAP-250], the apoptotic population ([1]; after 16 and 24 hours of treatment) is reported as “about 27%”, the Annexin positive cells ([1]; after 5 hours of treatment) is reported as 12% and the dead cells ([1]; after 5 hours of treatment) is reported as “about 7%”. The dead cells ([1]; after 24h) was 36%, the dead cells ([1]; at 16h) was 29% and the “p21 and PUMA mRNA expression increase over time” value [2] was “up to 10 fold”.

For HANLHHTRRRRRRRRRRR [pCAP-146], the “Mut-p53 specific effect on cell viability, MDA-MB-231 shCon cells” value [3] was “significant decrease” and the “Mut-p53 specific effect on cell viability, SKBR3 shCon cells” value [4] was “almost no specific effect”.

In the case of YRRLLIGMMW [pCAP-25], the “solubility in DMSO” value (Solubility in DMSO) is reported as “insoluble”.
